Here are results for 23 compounds from patent publication US9822114B2, “Tricyclic oxazolidinone antibiotic compounds” (Idorsia Pharmaceuticals Ltd, priority 2008, dated 2017).

Molecules are shown by their SMILES. Some results are limits rather than exact numbers.

In general, MIC refers to the smallest concentration in the dilution series that meets the test's criterion for growth inhibition. Lower therefore signals inhibition by little substance.

The assay has as its system M. catarrhalis A894. As to the kind of experiment: Minimal inhibitory concentration (MIC), microdilution method in cation-adjusted Mueller-Hinton Broth (CLSI M7-A7). The format is cell-based. As to conditions: Moraxella catarrhalis, strain A894. The protocol: Minimal inhibitory concentrations (MICs; mg/1) were determined in cation-adjusted Mueller-Hinton Broth by a microdilution method following the description given in “Methods for Dilution Antimicrobial Susceptibility Tests for Bacteria that Grow Aerobically”, Approved standard, 7th ed., Clinical and Laboratory Standards Institute (CLSI) Document M7-A7, Wayne, Pa., USA, 2006.
For `O=C1COc2ccc(N3C[C@H](CCNCC4Cn5c(=O)ccc6ccc(F)c4c65)OC3=O)cc2N1` (mixture of isomers) [Example 1, (1RS)-9-fluoro-1-({2-[(S)-2-oxo-3-(3-oxo-3,4-dihydro-2H-benzo[1,4]oxazin-6-yl)-oxazolidin-5-yl]-ethylamino}-methyl)-1,2-dihydro-pyrrolo[3,2,1-ij]quinolin-4-one], the MIC is ≤ 0.031 µg/mL.

With `O=C1COc2ccc(N3C[C@@H](CCNCC4Cn5c(=O)ccc6ccc(F)c4c65)OC3=O)cc2N1` (mixture of isomers) [Example 2, (1RS)-9-fluoro-1-({2-[(R)-2-oxo-3-(3-oxo-3,4-dihydro-2H-benzo[1,4]oxazin-6-yl)-oxazolidin-5-yl]-ethylamino}-methyl)-1,2-dihydro-pyrrolo[3,2,1-ij]quinolin-4-one], the MIC is ≤ 0.031 µg/mL.

For the compound `O=C1CSc2ccc(N3C[C@@H](CCNCC4Cn5c(=O)ccc6ccc(F)c4c65)OC3=O)cc2N1` (mixture of isomers) [Example 3, (1RS)-9-fluoro-1-({2-[(R)-2-oxo-3-(3-oxo-3,4-dihydro-2H-benzo[1,4]thiazin-6-yl)-oxazolidin-5-yl]-ethylamino}-methyl)-1,2-dihydro-pyrrolo[3,2,1-ij]quinolin-4-one], the MIC was ≤ 0.031 µg/mL.

`O=C1CSc2ccc(N3C[C@H](CCNCC4Cn5c(=O)ccc6ccc(F)c4c65)OC3=O)cc2N1` (mixture of isomers) [Example 4, (1RS)-9-fluoro-1-({2-[(S)-2-oxo-3-(3-oxo-3,4-dihydro-2H-benzo[1,4]thiazin-6-yl)-oxazolidin-5-yl]-ethylamino}-methyl)-1,2-dihydro-pyrrolo[3,2,1-ij]quinolin-4-one]: the MIC is ≤ 0.031 µg/mL.

Take `O=C1CSc2ccc(N3C[C@@H](CNCC4Cn5c(=O)ccc6ccc(F)c4c65)OC3=O)cc2N1` (mixture of isomers) [Example 5, (1RS)-9-fluoro-1-({[(R)-2-oxo-3-(3-oxo-3,4-dihydro-2H-benzo[1,4]thiazin-6-yl)-oxazolidin-5-ylmethyl]-amino}-methyl)-1,2-dihydro-pyrrolo[3,2,1-ij]quinolin-4-one]: the MIC is ≤ 0.031 µg/mL.

Take `O=C1O[C@H](CNCCC2Cn3c(=O)ccc4ccc(F)c2c43)CN1c1ccc2c(c1)OCCO2` (mixture of isomers) [Example 7, (1RS)-1-(2-{[(R)-3-(2,3-dihydro-benzo[1,4]dioxin-6-yl)-2-oxo-oxazolidin-5-ylmethyl]-amino}-ethyl)-9-fluoro-1,2-dihydro-pyrrolo[3,2,1-ij]quinolin-4-one]: the MIC is ≤ 0.031 µg/mL.

In the case of `O=C1CSc2ccc(N3C[C@H](CNCCC4Cn5c(=O)ccc6ccc(F)c4c65)OC3=O)cc2N1` (mixture of isomers) [Example 8, (1RS)-9-fluoro-1-(2-{[(S)-2-oxo-3-(3-oxo-3,4-dihydro-2H-benzo[1,4]thiazin-6-yl)-oxazolidin-5-ylmethyl]-amino}-ethyl)-1,2-dihydro-pyrrolo[3,2,1-ij]quinolin-4-one], the minimum inhibitory concentration (MIC) was ≤ 0.031 µg/mL.

On to `O=C1COc2ccc(N3C[C@@H](CNCCC4Cn5c(=O)ccc6ccc(F)c4c65)OC3=O)cc2N1` (mixture of isomers) [Example 9, (1RS)-9-fluoro-1-(2-{[(R)-2-oxo-3-(3-oxo-3,4-dihydro-2H-benzo[1,4]oxazin-6-yl)-oxazolidin-5-ylmethyl]-amino}-ethyl)-1,2-dihydro-pyrrolo[3,2,1-ij]quinolin-4-one], for which the MIC is ≤ 0.031 µg/mL.

For `O=C1CSc2ccc(N3C[C@@H](CNCCC4Cn5c(=O)ccc6ccc(F)c4c65)OC3=O)cc2N1` (mixture of isomers) [Example 10, (1RS)-9-fluoro-1-(2-{[(R)-2-oxo-3-(3-oxo-3,4-dihydro-2H-benzo[1,4]thiazin-6-yl)-oxazolidin-5-ylmethyl]-amino}-ethyl)-1,2-dihydro-pyrrolo[3,2,1-ij]quinolin-4-one], the MIC is ≤ 0.031 µg/mL.

`Cc1ccc(N2C[C@@H](CNCCC3Cn4c(=O)ccc5ccc(F)c3c54)OC2=O)cc1F` (mixture of isomers) [Example 11, (1RS)-9-fluoro-1-(2-{[(R)-3-(3-fluoro-4-methyl-phenyl)-2-oxo-oxazolidin-5-ylmethyl]-amino}-ethyl)-1,2-dihydro-pyrrolo[3,2,1-ij]quinolin-4-one] had an MIC of 0.063 µg/mL.

Consider `O=C1COc2ccc(N3C[C@@H](CCCNC4Cn5c(=O)ccc6ccc(F)c4c65)OC3=O)cc2N1` (mixture of isomers) [Example 12, (1RS)-9-fluoro-1-{3-[(R)-2-oxo-3-(3-oxo-3,4-dihydro-2H-benzo[1,4]oxazin-6-yl)-oxazolidin-5-yl]-propylamino}-1,2-dihydro-pyrrolo[3,2,1-ij]quinolin-4-one], for which the MIC was ≤ 0.031 µg/mL.

With `O=C1CSc2ccc(N3C[C@@H](CCCNC4Cn5c(=O)ccc6ccc(F)c4c65)OC3=O)cc2N1` (mixture of isomers) [Example 13, (1RS)-9-fluoro-1-{3-[(R)-2-oxo-3-(3-oxo-3,4-dihydro-2H-benzo[1,4]thiazin-6-yl)-oxazolidin-5-yl]-propylamino}-1,2-dihydro-pyrrolo[3,2,1-ij]quinolin-4-one], the MIC is ≤ 0.031 µg/mL.

`O=C1CSc2ccc(N3C[C@H](CNCCC4Cn5c(=O)ccc6ncc(F)c4c65)OC3=O)cc2N1` (mixture of isomers) [Example 16, (4RS)-3-fluoro-4-(2-{[(S)-2-oxo-3-(3-oxo-3,4-dihydro-2H-benzo[1,4]thiazin-6-yl)-oxazolidin-5-ylmethyl]-amino}-ethyl)-4,5-dihydro-pyrrolo[3,2,1-de][1,5]naphthyridin-7-one]: the MIC was ≤ 0.031 µg/mL.

For `O=C1CSc2ccc(N3C[C@@H](CNCCC4Cn5c(=O)ccc6ncc(F)c4c65)OC3=O)cc2N1` (mixture of isomers) [Example 17, (4RS)-3-fluoro-4-(2-{[(R)-2-oxo-3-(3-oxo-3,4-dihydro-2H-benzo[1,4]thiazin-6-yl)-oxazolidin-5-ylmethyl]-amino}-ethyl)-4,5-dihydro-pyrrolo[3,2,1-de][1,5]naphthyridin-7-one], the MIC was ≤ 0.031 µg/mL.

For the compound `O=C1CSc2ccc(N3C[C@@H](CCCNC4Cn5c(=O)cnc6cccc4c65)OC3=O)cc2N1` (mixture of isomers) [Example 20, (6RS)-6-{3-[(R)-2-oxo-3-(3-oxo-3,4-dihydro-2H-benzo[1,4]thiazin-6-yl)-oxazolidin-5-yl]-propylamino}-5,6-dihydro-pyrrolo[1,2,3-de]quinoxalin-3-one], the MIC is ≤ 0.031 µg/mL.

Consider `O=C1COc2ccc(N3C[C@@H](CCCNC4Cn5c(=O)cnc6cccc4c65)OC3=O)cc2N1` (mixture of isomers) [Example 21, (6RS)-6-{3-[(R)-2-oxo-3-(3-oxo-3,4-dihydro-2H-benzo[1,4]oxazin-6-yl)-oxazolidin-5-yl]-propylamino}-5,6-dihydro-pyrrolo[1,2,3-de]quinoxalin-3-one], for which the MIC was ≤ 0.031 µg/mL.

On to `O=C1CSc2ccc(N3C[C@H](CNCCC4CN5C(=O)CCc6ccc(F)c4c65)OC3=O)cc2N1` (mixture of isomers) [Example 22, (1RS)-9-fluoro-1-(2-{[(S)-2-oxo-3-(3-oxo-3,4-dihydro-2H-benzo[1,4]thiazin-6-yl)-oxazolidin-5-ylmethyl]-amino}-ethyl)-1,2,5,6-tetrahydro-pyrrolo[3,2,1-ij]quinolin-4-one], for which the MIC was ≤ 0.031 µg/mL.

`O=C1CSc2ccc(N3C[C@@H](CCNCC4CN5C(=O)CCc6ccc(F)c4c65)OC3=O)cc2N1` (mixture of isomers) [Example 23, (1RS)-9-fluoro-1-({2-[(R)-2-oxo-3-(3-oxo-3,4-dihydro-2H-benzo[1,4]thiazin-6-yl)-oxazolidin-5-yl]-ethylamino}-methyl)-1,2,5,6-tetrahydro-pyrrolo[3,2,1-ij]quinolin-4-one]: the MIC is ≤ 0.031 µg/mL.

Take `O=C1CSc2ccc(N3C[C@@H](CNCCC4CN5C(=O)CCc6ccc(F)c4c65)OC3=O)cc2N1` (mixture of isomers) [Example 24, (1RS)-9-fluoro-1-(2-{[(R)-2-oxo-3-(3-oxo-3,4-dihydro-2H-benzo[1,4]thiazin-6-yl)-oxazolidin-5-ylmethyl]-amino}-ethyl)-1,2,5,6-tetrahydro-pyrrolo[3,2,1-ij]quinolin-4-one]: the MIC was ≤ 0.031 µg/mL.

Regarding `O=C1COc2ccc(N3C[C@@H](CNCCC4CN5C(=O)CCc6ccc(F)c4c65)OC3=O)cc2N1` (mixture of isomers) [Example 25, (1RS)-9-fluoro-1-(2-{[(R)-2-oxo-3-(3-oxo-3,4-dihydro-2H-benzo[1,4]oxazin-6-yl)-oxazolidin-5-ylmethyl]-amino}-ethyl)-1,2,5,6-tetrahydro-pyrrolo[3,2,1-ij]quinolin-4-one], the MIC was ≤ 0.031 µg/mL.

Consider `O=C1O[C@H](CNCCC2CN3C(=O)CCc4ccc(F)c2c43)CN1c1ccc2c(c1)OCCO2` (mixture of isomers) [Example 26, (1RS)-1-(2-{[(R)-3-(2,3-dihydro-benzo[1,4]dioxin-6-yl)-2-oxo-oxazolidin-5-ylmethyl]-amino}-ethyl)-9-fluoro-1,2,5,6-tetrahydro-pyrrolo[3,2,1-ij]quinolin-4-one], for which the MIC came to 0.25 µg/mL.

`Cc1ccc(N2C[C@@H](CNCCC3CN4C(=O)CCc5ccc(F)c3c54)OC2=O)cc1F` (mixture of isomers) [Example 27, (1RS)-9-fluoro-1-(2-{[(R)-3-(3-fluoro-4-methyl-phenyl)-2-oxo-oxazolidin-5-ylmethyl]-amino}-ethyl)-1,2,5,6-tetrahydro-pyrrolo[3,2,1-ij]quinolin-4-one] registered an MIC of 0.5 µg/mL.

For `O=C1CSc2ccc(N3C[C@@H](CCNCC4Cn5c(=O)ccc6ncc(F)c4c65)OC3=O)cc2N1` (mixture of isomers) [Example 28, (4RS)-3-fluoro-4-({2-[(R)-2-oxo-3-(3-oxo-3,4-dihydro-2H-benzo[1,4]thiazin-6-yl)-oxazolidin-5-yl]-ethylamino}-methyl)-4,5-dihydro-pyrrolo[3,2,1-de][1,5]naphthyridin-7-one], the minimal inhibitory concentration (MIC) was ≤ 0.031 µg/mL.
